Common to all, as to assay: HTRF methyltransferase assay (SAM to SAH)
Holding throughout (format): biochemical
(Time-resolved FRET reads energy transfer from a long-lived donor to a nearby acceptor.)

Experiment [1] deals with T1, SARS-CoV-2 nsp14 guanine-N7-methyltransferase (Severe acute respiratory syndrome coronavirus 2, UniProt P0DTD1).
T1 construct: gene rep
An excerpt: HTRF methyltransferase assay (SAM to SAH) on SARS-CoV-2 nsp14 guanine-N7-methyltransferase

For experiment [2], the target named is T2, nsp16/nsp10 (Severe acute respiratory syndrome coronavirus 2, UniProt P0DTD1).
T2 construct: gene rep
Particulars: read-out: SARS-CoV-2 / nsp16/nsp10, IC50. An excerpt: HTRF methyltransferase assay (SAM to SAH) on nsp16/nsp10

For experiment [3], the target named is T3, human glycine N-methyltransferase (hGNMT) (Homo sapiens, UniProt Q14749).
T3 construct: gene GNMT; commercial protein (MyBioSource); homotetramer by known biology
T3 sequence (Q14749 2-295): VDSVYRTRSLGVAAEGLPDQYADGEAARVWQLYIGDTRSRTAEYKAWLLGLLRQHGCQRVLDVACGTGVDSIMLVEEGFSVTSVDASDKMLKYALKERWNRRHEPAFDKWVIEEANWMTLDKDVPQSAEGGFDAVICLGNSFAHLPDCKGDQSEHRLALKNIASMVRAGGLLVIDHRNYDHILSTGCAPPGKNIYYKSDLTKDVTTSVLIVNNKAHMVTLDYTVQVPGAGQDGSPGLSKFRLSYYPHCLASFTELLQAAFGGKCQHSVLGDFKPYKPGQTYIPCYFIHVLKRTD
An excerpt: HTRF methyltransferase assay (SAM to SAH) on human glycine N-methyltransferase (hGNMT)

The structures appear in SMILES notation.

Consider `Nc1ncnc2c1ncn2[C@@H]1O[C@H](CSCc2ccc(C(=O)O)cc2)[C@@H](O)[C@H]1O` [5a, 4-(((Adenosyl)thio)methyl)benzoic acid], for which the IC50 was found to be 500 ± 30 nM in experiment [1], 1450 ± 70 nM in experiment [2] and 400 ± 40 nM in experiment [3].

In the case of `CS(=O)(=O)Nc1cccc(CSC[C@H]2O[C@@H](n3cnc4c(N)ncnc43)[C@H](O)[C@@H]2O)c1` [5c, N-(3-(((Adenosyl)thio)methyl)phenyl)methanesulfonamide], the IC50 in experiment [1] turned out to be 280 ± 20 nM; in experiment [2], 480 ± 30 nM; in experiment [3], 250 ± 20 nM.

In the case of `Nc1ncnc2c1ncn2[C@@H]1O[C@H](CSCc2cccc(CC(=O)O)c2)[C@@H](O)[C@H]1O` [5d, 2-(3-(((Adenosyl)thio)methyl)phenyl)acetic acid], the IC50 in experiment [1] amounted to 680 ± 30 nM; in experiment [2], 1840 ± 90 nM; in experiment [3], 400 ± 30 nM.

For `Nc1ncnc2c1ncn2[C@@H]1O[C@H](CSCc2cccc(O)c2)[C@@H](O)[C@H]1O` [5e, 5′-(((3-Hydroxy)benzyl)thio)-5′-deoxyadenosine], the IC50 in experiment [3] amounted to 600 ± 30 nM.

Regarding `Nc1ncnc2c1ncn2[C@@H]1O[C@H](CSCc2cccc(CO)c2)[C@@H](O)[C@H]1O` [5f, 5′-(((3-Hydroxymethyl)benzyl)thio)-5′-deoxyadenosine], the IC50 stood at 740 ± 40 nM in experiment [1] and 1200 ± 100 nM in experiment [3].

On to `N#Cc1cccc(CSC[C@H]2O[C@@H](n3cnc4c(N)ncnc43)[C@H](O)[C@@H]2O)c1` [5g, 3-(((Adenosyl)thio)methyl)benzonitrile], for which the IC50 in experiment [1] came to 351 ± 28 nM; in experiment [3], 724 ± 58 nM.

On to `Nc1ncnc2c1ncn2[C@@H]1O[C@H](CSCc2cccc(-c3nn[nH]n3)c2)[C@@H](O)[C@H]1O` [5h, 5′-((3-(Tetrazolyl)benzyl)thio)-5′-deoxyadenosine], for which the IC50 in experiment [1] came out at 340 ± 12 nM; in experiment [3], 220 ± 9 nM.

With `CS(=O)(=O)c1cccc(CSC[C@H]2O[C@@H](n3cnc4c(N)ncnc43)[C@H](O)[C@@H]2O)c1` [5i, 5′-((3-(Methylsulfonyl)benzyl)thio)-5′-deoxyadenosine], the IC50 in experiment [1] worked out at 270 ± 20 nM; in experiment [3], 250 ± 20 nM.

On to `CNS(=O)(=O)c1cccc(CSC[C@H]2O[C@@H](n3cnc4c(N)ncnc43)[C@H](O)[C@@H]2O)c1` [5j, 3-(((Adenosyl)thio)methyl)-N-methylbenzenesulfonamide], for which the IC50 in experiment [1] turned out to be 400 ± 19 nM; in experiment [3] it was 350 ± 17 nM.

For `COC(=O)c1cccc(CSC[C@H]2O[C@@H](n3cnc4c(N)ncnc43)[C@H](O)[C@@H]2O)c1` [5k, Methyl 3-(((adenosyl)thio)methyl)benzoate], the IC50 in experiment [1] turned out to be 1350 ± 70 nM; in experiment [3] it was 870 ± 50 nM.

Consider `CNC(=O)c1cccc(CSC[C@H]2O[C@@H](n3cnc4c(N)ncnc43)[C@H](O)[C@@H]2O)c1` [5l, 3-(((Adenosyl)thio)methyl)-N-methylbenzamide], for which the IC50 is 2790 ± 140 nM in experiment [1] and 2780 ± 130 nM in experiment [3].

For `Nc1ncnc2c1ncn2[C@@H]1O[C@H](CSCc2ccc(Cl)c(C(=O)O)c2)[C@@H](O)[C@H]1O` [5m, 5-(((Adenosyl)thio)methyl)-2-chlorobenzoic acid], the IC50 in experiment [1] stood at 7.7 ± 0.4 nM; in experiment [3] it was 6.6 ± 0.3 nM.

For `Nc1ncnc2c1ncn2[C@@H]1O[C@H](CSCc2ccc(F)c(C(=O)O)c2)[C@@H](O)[C@H]1O` [5n, 5-(((Adenosyl)thio)methyl)-2-fluorobenzoic acid], the IC50 in experiment [1] worked out at 16 ± 2 nM; in experiment [3], 6.1 ± 0.3 nM.

`Nc1ncnc2c1ncn2[C@@H]1O[C@H](CSCc2cc(Cl)cc(C(=O)O)c2)[C@@H](O)[C@H]1O` [5o, 3-(((Adenosyl)thio)methyl)-5-chlorobenzoic acid]: the IC50 stood at 24 ± 1.2 nM in experiment [1] and 15 ± 0.7 nM in experiment [3].

On to `Nc1ncnc2c1ncn2[C@@H]1O[C@H](CSCc2cc(C(=O)O)cc(-c3ccccc3)c2)[C@@H](O)[C@H]1O` [5p, 5-(((Adenosyl)thio)methyl)-[1,1′-biphenyl]-3-carboxylic acid], for which the IC50 is 0.58 ± 0.03 nM in experiment [1] and 0.97 ± 0.05 nM in experiment [3].

On to `Nc1ncnc2c1ncn2[C@@H]1O[C@H](CSCc2ccc(-c3ccccc3)c(C(=O)O)c2)[C@@H](O)[C@H]1O` [5r, 4-(((Adenosyl)thio)methyl)-[1,1′-biphenyl]-2-carboxylic acid], for which the IC50 came out at 36 ± 1.8 nM in experiment [1] and 10 ± 0.5 nM in experiment [3].

In the case of `Nc1ncnc2c1ncn2[C@@H]1O[C@H](CSCc2cc(C(=O)O)cc(-c3ccc(O)cc3)c2)[C@@H](O)[C@H]1O` [5t, 5-(((Adenosyl)thio)methyl)-4′-hydroxy-[1,1′-biphenyl]-3-carboxylic acid], the IC50 in experiment [1] worked out at 4.2 ± 0.2 nM; in experiment [3], 4.5 ± 0.2 nM.

`Nc1ncnc2c1ncn2[C@@H]1O[C@H](CSCc2cc(C#CCO)cc(C(=O)O)c2)[C@@H](O)[C@H]1O` [5v, 3-(((Adenosyl)thio)methyl)-5-(3-hydroxyprop-1-yn-1-yl)benzoic acid]: the IC50 in experiment [1] was 12 ± 0.6 nM; in experiment [3], 9.8 ± 0.5 nM.

`Nc1ncnc2c1ncn2[C@@H]1O[C@H](CSc2ccc(Cl)c(C(=O)O)c2)[C@@H](O)[C@H]1O` [10a, 2-Chloro-5-((adenosyl)thio)benzoic acid]: the IC50 in experiment [1] came to 20 ± 2 nM; in experiment [2], 30 ± 4 nM; in experiment [3], 13 ± 2 nM.

For `Nc1ncnc2c1ncn2[C@@H]1O[C@H](CSc2cc(C(=O)O)ccc2Cl)[C@@H](O)[C@H]1O` [10b, 4-Chloro-5-((adenosyl)thio)benzoic acid], the IC50 came to 1300 ± 60 nM in experiment [1], 2300 ± 120 nM in experiment [2] and 330 ± 20 nM in experiment [3].

Turning to `Nc1ncnc2c1ncn2[C@@H]1O[C@H](CSc2ccc(Br)c(C(=O)O)c2)[C@@H](O)[C@H]1O` [10c, 2-Bromo-5-((adenosyl)thio)benzoic acid], the IC50 in experiment [1] came to 24 ± 2 nM; in experiment [3], 8.2 ± 0.4 nM.

As for `COc1ccc(SC[C@H]2O[C@@H](n3cnc4c(N)ncnc43)[C@H](O)[C@@H]2O)cc1C(=O)O` [10d, 2-Methoxy-5-((adenosyl)thio)benzoic acid], the IC50 in experiment [1] was 17 ± 0.9 nM; in experiment [3], 13 ± 0.6 nM.

On to `Nc1ncnc2c1ncn2[C@@H]1O[C@H](CSc2ccc(-c3ccccc3)c(C(=O)O)c2)[C@@H](O)[C@H]1O` [10e, 4-((Adenosyl)thio)-[1,1′-biphenyl]-2-carboxylic acid], for which the IC50 stood at 25 ± 2 nM in experiment [1] and 24 ± 1 nM in experiment [3].

For `Nc1ncnc2c1ncn2[C@@H]1O[C@H](CSc2ccc(C(=O)O)c(-c3ccccc3)c2)[C@@H](O)[C@H]1O` [10f, 5-((Adenosyl)thio)-[1,1′-biphenyl]-2-carboxylic acid], the IC50 came to 420 ± 19 nM in experiment [1] and 210 ± 10 nM in experiment [3].

The values are drawn from article PMC9862586, “3-(Adenosylthio)benzoic Acid Derivatives as SARS-CoV-2 Nsp14 Methyltransferase Inhibitors” (Molecules, 2023).
